Data from PMC3657615 (Nature chemical biology, 2012).

How the values were obtained:
[1] = assay type: physicochemical
[2] = test system: RSK2-CTD-mediated autophosphorylation of Ser386; experiment: pS386 RSK inhibition in MDA-MB-231 cells; assay type: cell-based
RSK1/2 [3] = experiment: Cellular RSK1/2 occupancy after inhibitor washout; assay type: cell-based; conditions: MDA-MB-231 cells, 1 μM inhibitor
[4] = Reaction with 10 mM glutathione; assay type: physicochemical
RSK1/2 [5] = experiment: Cellular RSK1/2 occupancy assay using FMK-BODIPY; assay type: cell-based; conditions: MDA-MB-231 cells

Compound | reaction with BME, stability or reversibility of the adduct [1] | potency relative to CN-NHiPr in the autophosphorylation assay [2] | time to reappearance of inhibitor-free RSK1/2 after washout (RSK1/2 [3]) | t1/2 of reaction with 10 mM glutathione [4] [h] | potency relative to CN-NHiPr in the cellular occupancy assay (RSK1/2 [5])
N#C/C=C/c1ccccc1 [Compound 2, cinnamonitrile] | stable thioether adducts | – | – | – | –
Cc1ccc(-c2c(C(=O)CF)n(CCCO)c3ncnc(N)c23)cc1 [FMK] | – | less potent than CN-NHiPr | at least 48 h | 16 | less potent than CN-NHiPr
